Results on seven substances are retold here after patent US20110263485A1, “Bifunctional Griffithsin Analogs” (priority 2009, published 2011).

In general, IC50 refers to the concentration that inhibits the measured activity by half. What is called IC90 is the concentration needed for an effect of 90%.

Data set [1] has as its system HeLa-ADA effector cells (HIV-1 ADA (R5) env) and HeLa-P5L target cells (CD4, CCR5). The experiment in a line: R5 cell-cell fusion assay. Conditions: for IC50: read-out: R5 fusion assay IC50.
The subject of data set [2] is ADA (R5) pseudovirus in TZM-bl cells. As to conditions: for IC50: read-out: ADA (R5) single round pseudovirus IC50.
Data set [3] concerns X4 fusion. As to conditions: Martin et al. (2003); cited from earlier work.
For data set [4], the system named is CCR5-tropic fusion. Conditions: published reports, vaccinia technology; cited from earlier work.
Data set [5] deals with HL2/3 effector cells (HXB2 env (X4)) and HeLa-TZM target cells. The experiment in a line: X4 cell-cell fusion assay. It counts as cell-based, HIV-1. From the text:
In the X4 fusion assay, HeLa-TZM cells were used as target cells and HL2/3 cells were used as effector cells.

Data set [6] relates to Ba-L (R5) in PBMC. Nature of the data set: HIV-1 replication in PBMC, Ba-L. It counts as cell-based.
The test system of data set [7] is ADA (R5) in MAGI cells. The experiment in a line: replication competent HIV assay, ADA in MAGI cells. It is filed as cell-based.
The subject of data set [8] is HIV. Conditions: cited from earlier work.
Data set [9] deals with NL4-3 (CXCR4-tropic) in PBMCs. The experiment in a line: HIV-1 replication in PBMC, NL4-3. It counts as cell-based. As to conditions: combinations as total protein concentration.
Data set [10] relates to multiple clades of HIV. Conditions: cited from earlier work.
The subject of data set [11] is HeLa P5L cells pre-incubated with inhibitor, washed, then HeLa ADA cells. The experiment in a line: R5 fusion assay with wash-out on P5L cells.
Data set [12] deals with 91US005 (R5) in PBMC. Nature of the data set: HIV-1 replication in PBMC, 91US005. It is filed as cell-based.
Data set [13] has as its system 92HT599 (CXCR4-tropic) in PBMCs. The experiment in a line: HIV-1 replication in PBMC, 92HT599. It counts as cell-based. Conditions: combinations as total protein concentration.
Data set [14] deals with rabbit vaginal model. As to conditions: in vivo; cited from earlier work.
The subject of data set [15] is human cervical explants. Conditions: cited from earlier work.
Data set [16] relates to Ba-L (R5) in MAGI cells. The experiment in a line: replication competent HIV assay, Ba-L in MAGI cells. It is filed as cell-based.
Data set [17] deals with JRFL (R5) pseudovirus in TZM-bl cells. The experiment in a line: single round infection assay, JRFL pseudovirus.
Data set [18] has as its system HeLa ADA cells pre-incubated with inhibitor, washed, then HeLa P5L cells. Nature of the data set: R5 fusion assay with wash-out on ADA cells.
For data set [19], the system named is HeLa-ADA effector cells and HeLa-P5L target cells seeded with 3T3 cells. Nature of the data set: competition R5 fusion assay with mouse 3T3 competitor cells. It counts as cell-based, HIV-1. As to conditions: for inhibition in R5 fusion assay with competitor cells, in words: mouse 3T3 competitor cells. As for the experimental part:
In the competition R5 fusion assay, 5×10^3 HeLa-P5L cells were seeded together with 5×10^3 3T3 cells per well. The rest of the procedure was identical to the normal R5 fusion assay.
For a potential therapeutic to be beneficial in an organism, it needs to be able to effectively find its target in the milieu of other cell types and potential binding partners. As a test of this ability, the R5 cell fusion assay was modified with the addition of unrelated mouse 3T3 cells.

In data set [20] the test system is IIIB (X4) in MAGI cells. Nature of the data set: replication competent HIV assay, IIIB in MAGI cells. It counts as cell-based.
Data set [21] concerns HIV. Conditions: read-out: IC50 (50% inhibition) in in vitro assays; Root & Steger (2004); cited from earlier work.
For data set [22] the following is noted: cited from earlier work.

Several values for one entry are separate records, joined by “and”; a condition that tells them apart may be missing. Identical values can stand only once. Like-named read-outs stand apart in the source and are kept apart here.

Consider “Ac-HTTWMEWDREINNYTSLIHSLIEESQNLQEKNEQELL-NH2 [C37(Q652L)]”, for which the IC50 in [1] stood at 28.2 ± 8.34 nM; in data set [2], 114 ± 4.94 nM.
As to “CD4M33: 27 amino acid peptide designed by Martin et al. as a mimic of human CD4 binding HIV gp120 (CNLHFCQLRCKSLGLLGKCAGSFCACV)”, the IC50 in data set [3] was 800 ± 90 nM. In addition, the “amount required to inhibit CCR5-tropic fusion” value in [4] is listed as “micromolar amounts of the peptide are required”.
On to “Griff37 I642D: Griff37 with substitution of Asp for Ile at position 642 in C37”, for which the “inhibition in R5 fusion assay, in words” value in data set [1] is reported as “shows decreased activity”.
On to “GriffC37(Q652L): Griff37 with point mutation Q652L in the C37 part”, for which the “inhibition in X4 fusion assay, in words” value in data set [5] was “similar”. Further, the “inhibition in R5 fusion assay, in words” value in data set [1] is given as “approximately the same effectiveness as Griff37”.
For Griffithsin, the IC50 in [6] (PBMCs, Table 8, combinations as total protein concentration, read-out: Ba-L (CCR5-tropic) IC50) is 0.28 ± 0.17 nM; in [6] (Table 7, read-out: Ba-L (R5) in PBMC IC50) it was 0.28 ± 0.17 nM; in [5], 0.48 nM and 0.468 nM; in data set [7] it was 0.03 ± 0.01 nM; in data set [9], 0.17 ± 0.04 nM; in [1], 1.31 nM and 1.3 nM. The IC50 was 0.008 ± 0.016 nM in [2]; 7.34 ± 3.58 nM in data set [11] (read-out: R5 fusion with wash-out on P5L cells IC50); 0.28 ± 0.17 nM in data set [12] (PBMCs, Table 8, combinations as total protein concentration, read-out: 91US005 (CCR5-tropic) IC50); 0.16 ± 0.03 nM in data set [12] (Table 7, read-out: 91US005 (R5) in PBMC IC50); 0.74 ± 0.37 nM in data set [13]; 0.04 nM in data set [16]. Also, the IC50 is 0.035 ± 0.008 nM in data set [17] (read-out: JRFL (R5) single round pseudovirus IC50), 4.28 ± 1.5 nM in data set [18] (read-out: R5 fusion with wash-out on ADA cells IC50), 1.73 ± 0.603 nM in data set [19] (3T3 competitor cells) and 0.145 ± 0.065 nM in data set [20]. Besides, the 90% effect concentration (IC90) is 0.76 ± 0.15 nM in data set [6] (PBMCs, Table 8, combinations as total protein concentration, read-out: Ba-L (CCR5-tropic) IC90); 0.76 ± 0.15 nM in data set [6] (Table 7, read-out: Ba-L (R5) in PBMC IC90); 0.45 ± 0.04 nM in data set [7]; 0.725 ± 0.13 nM in data set [9]; 0.164 ± 0.069 nM in data set [2] (read-out: ADA (R5) single round pseudovirus IC90); 0.76 ± 0.15 nM in data set [12] (PBMCs, Table 8, combinations as total protein concentration, read-out: 91US005 (CCR5-tropic) IC90). The 90% effect concentration (IC90) in data set [12] (Table 7, read-out: 91US005 (R5) in PBMC IC90) came out at 0.51 ± 0.08 nM; in data set [13], 1.86 ± 0.89 nM; in data set [16], 0.515 ± 0.055 nM; in [17] (read-out: JRFL (R5) single round pseudovirus IC90), 1.25 ± 0.19 nM; in [20], 0.89 ± 0.11 nM. In addition, the “activity in cervical/vaginal lavage fluid” value in data set [8] is recorded as “retains its activity”. For the same substance, the “activity against clades of HIV” value in data set [10] is on record as “active against multiple clades of HIV”. The “inhibition after wash-out on target (P5L) cells, in words” value in [11] was “still performed well”. In addition, the “irritation in a rabbit vaginal model” value in [14] was “non irritating”. The “inflammation in human cervical explants” value in data set [15] is reported as “non-inflammatory”. For the same substance, the “inhibition after wash-out on ADA cells, in words” value in data set [18] is recorded as “maintained nanomolar effectiveness”. The “inhibition in R5 fusion assay with competitor cells, in words” value in data set [19] is reported as “still performs well”.
As for “P2-RANTES-linker-Griffithsin: P2-RANTES linked to Griffithsin; SEQ ID NO. 4”, the “inhibition in R5 fusion assay, in words” value in [1] was “more effective than Griffithsin alone”. For the same substance, in [19], the “inhibition in R5 fusion assay with competitor cells, in words” value is given as “appeared to perform better than either protein alone”.
For enfuvirtide, in [21], the IC50 was 2 to 20 nM. Besides, the lifetime in vivo entry in data set [22] is listed as “short lifetime of only hours in vivo”.
